Source: patent US10344026B2, “Compositions and methods of targeting mutant K-ras” (NANTBIO, INC., priority 2017, dated 2019)

Columns and labels:
Type in all cases: cell-based
[1] = test system: phospho-ERK in HCC827 (Wild-type); test: In-Cell Western phospho-ERK, HCC827; details: Homo sapiens, 1 h; HCC827, one hour treatment; read-out: In-Cell Western HCC827 (Wild-type) Erk (P)
Outline: (§1)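 EC50 values come from immunofluorescence quantitation of phosphorylated ERK or Akt in fixed cells exposed to compound for one hour at 0.5% DMSO. Maximal inhibition is defined by 1 uM BEZ235 for Akt and 1 uM MEK Inhibitor II for ERK.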

[2] = test system: phospho-Akt in HCC827 (Wild-type); test: In-Cell Western phospho-Akt, HCC827; details: Homo sapiens, 1 h; HCC827, one hour treatment; read-out: In-Cell Western HCC827 (Wild-type) Akt (P)
Experimental: In-cell phosphorylation assays for Erk and Akt were performed on several of the compounds and exemplary results are shown in Table 3 below using HCC827 and A375 cell lines for wild type K-Ras and Panc1 and Panc10.05 cell lines for G12D K-Ras mutants. Results are expressed in μM and corresponding structures are shown in FIGS. 2A-2G and Examples 1-152, above.
Cells are seeded in complete medium into black sided, clear-bottom 384-well microplates at 3000 cells/[…]/well. Plates are returned to 37° C. CO2 incubator for 18 hr. Drug is made as 200× in DMSO and diluted into medium to 10×. To each well is added 4 ul 10× test article or controls, and plates are returned to the incubator. Final assay DMSO concentration is 0.5%. After one hour, cells are fixed in formaldehyde, rinsed & permeabilized with triton X-100, and blocked with BSA/Goat serum blocking solution. Primary phospho-Akt and phospho-ERK antibodies are added and plates are incubated overnight at 4° C. Plates are rinsed with Tween-20 wash buffer and secondary antibody (Goat anti-rabbit, Thermofisher) is added. After 2 hours, plates are rinsed in Tween-20 wash buffer, and then PBS. Plates are imaged on the Celigo (Nexcelom) and cellular fluorescence is quantitated. Full inhibition of phospho-Akt is achieved with 1 uM BEZ235 (Sellekchem), while full inhibition of phospho-ERK is achieved with 1 uM MEK Inhibitor II Calbiochem). EC50 values are calculated using Graphpad Prism.

[3] = test system: HCC827 (K-Ras wild type cell line); test: Viability assay (CellTiterBlue, 72 hr) HCC827; details: Homo sapiens, GI50, CellTiterBlue, HCC827 K-Ras wild-type
Outline: (§2)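 Fluorescence at Ex550/Em590, read 3 hr after CellTiterBlue addition, served as the viability signal following 72 hr compound treatment. Wells held 1000 cells, pre-incubated 18 hr at 37 °C, with 0.5% DMSO final. GI50 derived with DMSO as 100% and 100 uM tamoxifen as 0% viability.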

[4] = test system: HCT116-G31D; test: Viability assay (CellTiterBlue, 72 hr) HCT116; details: Homo sapiens, HCT-116, GI50, CellTiterBlue, HCT116 K-Ras G13D, read-out: 72 hr Cell Viability HCT116 (G13D)
Outline: as §2

[5] = target: T1, K-Ras G12D (Homo sapiens, UniProt P01116, G12D); test: G-LISA Ras activation, 293H cells transfected with G12D mutant; details: compound 1 hour
T1 construct: expressed in transfected cells; host or cells: 293H cells
T1 sequence (P01116 whole entry G12D): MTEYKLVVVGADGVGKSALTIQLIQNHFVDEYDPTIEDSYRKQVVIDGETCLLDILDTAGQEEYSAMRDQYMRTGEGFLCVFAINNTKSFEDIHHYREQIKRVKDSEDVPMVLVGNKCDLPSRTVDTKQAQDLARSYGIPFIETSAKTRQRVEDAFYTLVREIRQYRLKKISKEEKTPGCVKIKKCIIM
Outline: (§3)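 Seed 293H cells, transfect with Ras wild-type or mutant vector, treat with compound (3.125-25 μM, 1 h), stimulate wild-type cells with EGF (100 ng/ml, 2 min), lyse in ice-cold buffer, then measure GTP-Ras by G-LISA.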

[6] = test system: U87-MG (K-Ras wild type cell line); test: Viability assay (CellTiterBlue, 72 hr) U87-MG; details: Homo sapiens, U-87 MG, GI50, CellTiterBlue, U87-MG K-Ras wild-type
Outline: as §2

[7] = test system: Panc1-G12D; test: Viability assay (CellTiterBlue, 72 hr) Panc1; details: Homo sapiens, PANC-1, GI50, CellTiterBlue, Panc1 K-Ras G12D, read-out: 72 hr Cell Viability Panc1 (G12D)
Outline: as §2

[8] = test system: Panc10.05-G12D; test: Viability assay (CellTiterBlue, 72 hr) Panc10.05; details: Homo sapiens, Panc1005, GI50, CellTiterBlue, Panc10.05 K-Ras G12D, read-out: 72 hr Cell Viability Panc10.05 (G12D)
Outline: as §2

[9] = test system: Ishikawa (K-Ras wild type cell line); test: Viability assay (CellTiterBlue, 72 hr) Ishikawa; details: Homo sapiens, GI50, CellTiterBlue, Ishikawa K-Ras wild-type
Outline: as §2

[10] = test system: phospho-Akt in Panc1 (G12D); test: In-Cell Western phospho-Akt, Panc1; details: Homo sapiens, PANC-1, 1 h; Panc1, one hour treatment; read-out: In-Cell Western Panc1 (G12D) Akt (P)
Outline: as §1

[11] = test system: phospho-ERK in Panc1 (G12D); test: In-Cell Western phospho-ERK, Panc1; details: Homo sapiens, PANC-1, 1 h; Panc1, one hour treatment; read-out: In-Cell Western Panc1 (G12D) Erk (P)
Outline: as §1

[12] = target: T2, wild type K-Ras (Homo sapiens, UniProt P01116); test: G-LISA Ras activation, 293H cells transfected with Ras wild-type, EGF stimulated; details: compound 1 hour, then 100 ng/ml EGF 2 minutes
T2 construct: expressed in transfected cells; host or cells: 293H cells
T2 sequence (P01116 whole entry): as the sequence (P01116 whole entry G12D) above, with D12G counted along it
Outline: as §3

[13] = test system: phospho-ERK in Panc10.05 (G12D); test: In-Cell Western phospho-ERK, Panc10.05; details: Homo sapiens, Panc1005, 1 h; Panc10.05, one hour treatment; read-out: In-Cell Western Panc10.05 (G12D) Erk (P)
Outline: as §1

[14] = test system: phospho-Akt in Panc10.05 (G12D); test: In-Cell Western phospho-Akt, Panc10.05; details: Homo sapiens, Panc1005, 1 h; Panc10.05, one hour treatment; read-out: In-Cell Western Panc10.05 (G12D) Akt (P)
Outline: as §1

SMILES | EC50 [1] [µM] | EC50 [2] [µM] | IC50 [3] [µM] | IC50 [4] [µM] | IC50 [5] [µM] | IC50 [6] [µM] | IC50 [7] [µM] | IC50 [8] [µM] | IC50 [9] [µM] | EC50 [10] [µM] | EC50 [11] [µM] | IC50 [12] [µM] | EC50 [13] [µM] | EC50 [14] [µM]
CCc1nn(C)cc1C(=O)Nc1nc(-c2ccc3c(c2)CCC(=O)N3)cs1 [Compound 37, 3-ethyl-1-methyl-N-(4-(2-oxo-1,2,3,4-tetrahydroquinolin-6-yl)thiazol-2-yl)-1H-pyrazole-4-carboxamide] | > 25 | > 25 | 7 | > 25 | > 25 | 6 | > 25 | > 25 | > 25 | 26 | > 25 | – | – | –
Cn1ncc(C(=O)Nc2nc(-c3ccc4c(c3)CCC(=O)N4)cs2)c1C1CC1 [Compound 35, 5-cyclopropyl-1-methyl-N-(4-(2-oxo-1,2,3,4-tetrahydroquinolin-6-yl)thiazol-2-yl)-1H-pyrazole-4-carboxamide] | 11 | > 25 | 7 | > 25 | > 25 | 6 | > 25 | > 25 | 19 | > 25 | > 25 | – | – | –
Cc1nn(C(C)C)cc1C(=O)Nc1nc(-c2ccc3c(c2)CCC(=O)N3)cs1 [Compound 36, 1-isopropyl-3-methyl-N-(4-(2-oxo-1,2,3,4-tetrahydroquinolin-6-yl)thiazol-2-yl)-1N-pyrazole-4-carboxamide] | 20 | > 25 | > 25 | > 25 | 7 | > 25 | 14 | 3 | 7 | 15 | 2 | 18.3 | – | –
CCn1ncc(C(=O)Nc2nc(-c3ccc4c(c3)CCC(=O)N4)cs2)c1C1CC1 [Compound 33, 5-cyclopropyl-1-ethyl-N-(4-(2-oxo-1,2,3,4-tetrahydroquinolin-6-yl)thiazol-2-yl)-1H-pyrazole-4-carboxamide] | > 25 | > 25 | > 25 | > 25 | > 25 | > 25 | > 25 | > 25 | > 25 | > 25 | > 25 | – | – | –
CCn1nc(C)c(C(=O)Nc2nc(-c3ccc4c(c3)CCC(=O)N4)cs2)c1C [Compound 41, 1-ethyl-3,5-dimethyl-N-(4-(2-oxo-1,2,3,4-tetrahydroquinolin-6-yl)thiazol-2-yl)-1H-pyrazole-4-carboxamide] | 22 | > 25 | 6 | > 25 | 4.3 | 7 | 12 | 19 | 18 | 3 | 2 | 7.5 | – | –
Cc1nn(C)c(C)c1C(=O)Nc1nc(-c2ccc3c(c2)CCC(=O)N3)cs1 [Compound 40, 1,3,5-trimethyl-N-(4-(2-oxo-1,2,3,4-tetrahydroquinolin-6-yl)thiazol-2-yl)-1H-pyrazole-4-carboxamide] | > 25 | 25 | 7 | > 25 | 6.1 | 9 | 24 | > 25 | > 25 | 7 | 8 | 23.3 | – | –
Cn1cc(C(=O)Nc2nc(-c3ccc4c(c3)CCC(=O)N4)cs2)c(C(F)(F)F)n1 [Compound 30, 1-methyl-N-(4-(2-oxo-1,2,3,4-tetrahydroquinolin-6-yl)thiazol-2-yl)-3-(trifluoromethyl)-1H-pyrazole-4-carboxamide] | 16 | > 25 | > 25 | > 25 | > 25 | > 25 | > 25 | 23 | 18 | > 25 | 8 | – | – | –
Cn1cc(C(=O)Nc2nc(-c3ccc4c(c3)CCC(=O)N4)cs2)cn1 [Compound 28, 1-methyl-N-(4-(2-oxo-1,2,3,4-tetrahydroquinolin-6-yl)thiazol-2-yl)-1H-pyrazole-4-carboxamide] | 16 | > 25 | > 25 | > 25 | – | > 25 | > 25 | > 25 | > 25 | > 25 | > 25 | – | – | –
Cn1cc(C(=O)Nc2nc(-c3ccc4c(c3)CCC(=O)N4)cs2)c(-c2ccccc2)n1 [Compound 29, 1-methyl-N-(4-(2-oxo-1,2,3,4-tetrahydroquinolin-6-yl)thiazol-2-yl)-3-phenyl-1H-pyrazole-4-carboxamide] | 21 | > 25 | > 25 | > 25 | – | > 25 | > 25 | > 25 | > 25 | > 25 | 13 | – | – | –
CCn1cc(C(=O)Nc2nc(-c3ccc4c(c3)CCC(=O)N4)cs2)cn1 [Compound 34, 1-ethyl-N-(4-(2-oxo-1,2,3,4-tetrahydroquinolin-6-yl)thiazol-2-yl)-1H-pyrazole-4-carboxamide] | > 25 | > 25 | > 25 | > 25 | 15.8 | > 25 | > 25 | 7 | 9 | > 25 | 15 | – | – | –
CC(C)c1nn(C)cc1C(=O)Nc1nc(-c2ccc3c(c2)CCC(=O)N3)cs1 [Compound 32, 3-isopropyl-1-methyl-N-(4-(2-oxo-1,2,3,4-tetrahydroquinolin-6-yl)thiazol-2-yl)-1H-pyrazole-4-carboxamide] | 20 | > 25 | 8 | > 25 | – | 9 | > 25 | > 25 | > 25 | 26 | > 25 | – | – | –
Cc1nc(C2CCOC2O)sc1C(=O)Nc1nc(-c2ccc3c(c2)CCC(=O)N3Cc2cccnc2)cs1 (stereo not drawn) [Compound 71, 2-(2-hydroxytetrahydrofuran-3-yl)-4-methyl-N-(4-(2-oxo-1-(pyridin-3-ylmethyl)-1,2,3,4-tetrahydroquinolin-6-yl)thiazol-2-yl)thiazole-5-carboxamide] | 16 | 27 | 7 | 9 | – | – | 22 | 6 | 6 | 18 | 25 | – | 16 | > 25
